# In EP4722207A1, “OXOISOINDOLINYL-SUBSTITUTED TETRAHYDROPYRIMIDINEDIONE DERIVATIVE AND USE THEREOF” (Gluetacs Therapeutics (Shanghai) Co., Ltd., priority 2023, dated 2024):
# Assays:
# [1] = tested on: MV-4-11; experiment: Cell viability assay (CellTiter-Meiluncell Luminescent), tumor cell proliferation, MV-4-11; conditions: Homo sapiens, MV4-11, 96 h; for IC50: read-out: inhibitory activity (IC50, nM) against tumor cells proliferation, MV-4-11; for inhibition at 0.01 µM: read-out: Inhibition Rate at 10 nM (%); for inhibition at 0.5 µM: read-out: Inhibition Rate at 500 nM (%)
# [2] = biological target: T1, IKZF1 (Homo sapiens, UniProt Q13422+Q96SW2); experiment: Western-blot assay, substrate protein degradation in hPBMCs: IKZF1; assay type: cell-based; conditions: for IKZF1 substrate protein remaining %: compounds at 50 nM and 500 nM, 24 hours; for substrate protein remaining % IKZF1: 24 hours of compound treatment, 50 nM and 500 nM
# T1 construct: effects of the compounds of the present disclosure on the expression of target proteins in cells; endogenous in cells; host or cells: human PBMCs (hPBMCs)
# [3] = biological target: T2, WEE1 (Homo sapiens, UniProt P30291+Q96SW2); experiment: Western-blot assay, substrate protein degradation in hPBMCs: WEE1; assay type: cell-based; conditions: for WEE1 substrate protein remaining %: compounds at 50 nM and 500 nM, 24 hours; for substrate protein remaining % WEE1: 24 hours of compound treatment, 50 nM and 500 nM
# T2 construct: effects of the compounds of the present disclosure on the expression of target proteins in cells; endogenous in cells; host or cells: human PBMCs (hPBMCs)
# [4] = biological target: T3, CK1α (Homo sapiens, UniProt P48729+Q96SW2); experiment: Western-blot assay, substrate protein degradation in hPBMCs: CK1α; assay type: cell-based; conditions: for CK1α substrate protein remaining %: compounds at 50 nM and 500 nM, 24 hours; for substrate protein remaining % CK1α: 24 hours of compound treatment, 50 nM and 500 nM
# T3 construct: effects of the compounds of the present disclosure on the expression of target proteins in cells; endogenous in cells; host or cells: human PBMCs (hPBMCs)
# [5] = biological target: T4, IKZF3 (Homo sapiens, UniProt Q96SW2+Q9UKT9); experiment: Western-blot assay, substrate protein degradation in hPBMCs: IKZF3; assay type: cell-based; conditions: for IKZF3 substrate protein remaining %: compounds at 50 nM and 500 nM, 24 hours; for substrate protein remaining % IKZF3: 24 hours of compound treatment, 50 nM and 500 nM
# T4 construct: effects of the compounds of the present disclosure on the expression of target proteins in cells; endogenous in cells; host or cells: human PBMCs (hPBMCs)
# [6] = biological target: T5, IKZF2 (Homo sapiens, UniProt Q96SW2+Q9UKS7); experiment: Western-blot assay, substrate protein degradation in hPBMCs: IKZF2; assay type: cell-based; conditions: for IKZF2 substrate protein remaining %: compounds at 50 nM and 500 nM, 24 hours; for substrate protein remaining % IKZF2: 24 hours of compound treatment, 50 nM and 500 nM
# T5 construct: effects of the compounds of the present disclosure on the expression of target proteins in cells; endogenous in cells; host or cells: human PBMCs (hPBMCs)
# [7] = biological target: T6, GSPT1 (Homo sapiens, UniProt P15170+Q96SW2); experiment: Western-blot assay, substrate protein degradation in hPBMCs: GSPT1; assay type: cell-based; conditions: for GSPT1 substrate protein remaining %: compounds at 50 nM and 500 nM, 24 hours; for substrate protein remaining % GSPT1: 24 hours of compound treatment, 50 nM and 500 nM
# T6 construct: effects of the compounds of the present disclosure on the expression of target proteins in cells; endogenous in cells; host or cells: human PBMCs (hPBMCs)
# [8] = tested on: H292; experiment: Cell viability assay (CellTiter-Meiluncell Luminescent), tumor cell proliferation, H292; conditions: Homo sapiens, NCI-H292, 96 h; for inhibition at 0.01 µM: read-out: Inhibition Rate at 10 nM (%); for inhibition at 0.5 µM: read-out: Inhibition Rate at 500 nM (%)
# Protocol: The tumor cells used herein were cultured in a cell culture medium listed in table 2 at 37°C in an incubator with 5% CO2. Prior to experimentation, all cell lines used were correctly identified by STR profiling, and tested negative for mycoplasma contamination using a mycoplasma detection kit through routine screenings.
# On the following day, the test compounds of the present disclosure were subjected to serial dilution. […] Subsequently, 0.5 µL of the test compound dilution was transferred into the 96-well plate containing the cells, with each well containing 100 µL of cell culture medium. […] Into the 96-well plate, the diluted test compounds and corresponding detection reagents were added, resulting in final test compound concentrations of 500 nM and 10 nM, respectively. The experimental procedure is described below using the diluted 2 µM test compound as an example.
# After the cells were treated with the compounds of the present disclosure for a specified period, the cell viability assay reagent was added to the culture medium according to the kit's instructions to determine cell viability. […] All controls were treated using the same procedure as the compounds of the present disclosure. The growth inhibition curves for the compounds of the present disclosure were plotted using Prism GraphPad software, and the IC50 values were calculated therefrom.
# T3 sequence (P48729 whole entry): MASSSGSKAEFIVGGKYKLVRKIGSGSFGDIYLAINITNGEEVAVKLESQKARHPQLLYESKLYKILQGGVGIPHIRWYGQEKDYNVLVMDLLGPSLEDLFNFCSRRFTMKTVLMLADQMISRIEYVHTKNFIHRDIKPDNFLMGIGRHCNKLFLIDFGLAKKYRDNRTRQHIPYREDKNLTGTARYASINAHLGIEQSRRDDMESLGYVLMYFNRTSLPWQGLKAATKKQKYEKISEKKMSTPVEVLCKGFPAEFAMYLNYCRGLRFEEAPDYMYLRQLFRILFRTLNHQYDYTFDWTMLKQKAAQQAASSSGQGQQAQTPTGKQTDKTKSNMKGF
# T3 sequence (Q96SW2 whole entry): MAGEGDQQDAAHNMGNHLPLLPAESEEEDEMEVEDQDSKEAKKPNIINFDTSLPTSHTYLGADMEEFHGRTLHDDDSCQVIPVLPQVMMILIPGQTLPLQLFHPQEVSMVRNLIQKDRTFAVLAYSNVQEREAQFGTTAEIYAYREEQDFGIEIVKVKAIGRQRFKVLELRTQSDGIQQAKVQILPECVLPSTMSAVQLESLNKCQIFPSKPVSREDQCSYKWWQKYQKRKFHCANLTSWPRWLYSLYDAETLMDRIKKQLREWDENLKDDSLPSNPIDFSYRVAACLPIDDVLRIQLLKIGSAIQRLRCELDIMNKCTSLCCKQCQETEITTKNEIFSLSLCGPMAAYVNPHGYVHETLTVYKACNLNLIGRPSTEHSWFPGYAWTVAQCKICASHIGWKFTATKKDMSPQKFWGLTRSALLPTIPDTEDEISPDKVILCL
# T3 sequence (Q16531 whole entry partner): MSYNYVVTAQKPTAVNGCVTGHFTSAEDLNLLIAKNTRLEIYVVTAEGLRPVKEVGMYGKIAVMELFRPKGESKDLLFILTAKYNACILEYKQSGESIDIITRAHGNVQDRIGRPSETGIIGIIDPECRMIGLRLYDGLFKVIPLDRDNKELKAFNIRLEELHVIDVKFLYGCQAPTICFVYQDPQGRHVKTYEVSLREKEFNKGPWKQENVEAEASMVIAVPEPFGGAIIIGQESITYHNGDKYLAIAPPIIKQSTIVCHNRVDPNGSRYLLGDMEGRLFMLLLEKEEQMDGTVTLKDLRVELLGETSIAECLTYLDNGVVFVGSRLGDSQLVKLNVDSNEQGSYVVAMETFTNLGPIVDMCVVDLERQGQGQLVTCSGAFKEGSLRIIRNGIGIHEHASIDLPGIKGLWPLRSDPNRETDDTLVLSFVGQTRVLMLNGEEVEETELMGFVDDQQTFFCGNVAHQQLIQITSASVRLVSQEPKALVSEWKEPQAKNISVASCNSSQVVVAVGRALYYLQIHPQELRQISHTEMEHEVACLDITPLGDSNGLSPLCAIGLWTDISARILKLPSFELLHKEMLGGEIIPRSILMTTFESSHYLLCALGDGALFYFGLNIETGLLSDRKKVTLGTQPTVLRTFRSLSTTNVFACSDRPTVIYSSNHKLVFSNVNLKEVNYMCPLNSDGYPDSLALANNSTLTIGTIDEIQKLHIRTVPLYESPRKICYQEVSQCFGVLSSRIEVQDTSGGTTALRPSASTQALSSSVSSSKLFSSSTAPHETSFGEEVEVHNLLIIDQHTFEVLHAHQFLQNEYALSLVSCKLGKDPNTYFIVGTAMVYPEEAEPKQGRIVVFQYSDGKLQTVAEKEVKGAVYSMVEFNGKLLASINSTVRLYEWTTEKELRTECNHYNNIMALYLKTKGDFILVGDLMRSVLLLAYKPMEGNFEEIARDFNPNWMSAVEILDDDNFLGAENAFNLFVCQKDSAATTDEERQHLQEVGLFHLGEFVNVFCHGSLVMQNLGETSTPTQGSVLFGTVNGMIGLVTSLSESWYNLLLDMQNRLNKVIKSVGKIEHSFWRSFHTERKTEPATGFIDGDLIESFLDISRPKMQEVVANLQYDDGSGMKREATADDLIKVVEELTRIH
# T1 sequence (Q13422 whole entry): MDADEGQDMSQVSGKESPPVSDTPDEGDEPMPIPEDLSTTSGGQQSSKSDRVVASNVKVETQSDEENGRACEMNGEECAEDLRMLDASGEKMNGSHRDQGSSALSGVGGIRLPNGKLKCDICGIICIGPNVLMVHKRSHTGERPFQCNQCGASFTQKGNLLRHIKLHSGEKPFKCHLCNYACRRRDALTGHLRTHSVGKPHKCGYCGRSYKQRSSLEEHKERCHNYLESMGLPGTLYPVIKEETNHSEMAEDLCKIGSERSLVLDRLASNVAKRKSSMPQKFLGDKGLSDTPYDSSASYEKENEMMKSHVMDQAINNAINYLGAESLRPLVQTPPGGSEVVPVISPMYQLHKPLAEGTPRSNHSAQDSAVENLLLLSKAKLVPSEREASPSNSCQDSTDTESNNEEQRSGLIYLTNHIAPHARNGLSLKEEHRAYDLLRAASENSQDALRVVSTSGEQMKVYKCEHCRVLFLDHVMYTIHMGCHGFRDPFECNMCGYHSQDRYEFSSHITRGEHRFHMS
# T1 sequence (Q96SW2 whole entry): as the sequence (Q96SW2 whole entry) above
# T1 sequence (Q16531 whole entry partner): as the sequence (Q16531 whole entry partner) above
# T4 sequence (Q9UKT9 whole entry): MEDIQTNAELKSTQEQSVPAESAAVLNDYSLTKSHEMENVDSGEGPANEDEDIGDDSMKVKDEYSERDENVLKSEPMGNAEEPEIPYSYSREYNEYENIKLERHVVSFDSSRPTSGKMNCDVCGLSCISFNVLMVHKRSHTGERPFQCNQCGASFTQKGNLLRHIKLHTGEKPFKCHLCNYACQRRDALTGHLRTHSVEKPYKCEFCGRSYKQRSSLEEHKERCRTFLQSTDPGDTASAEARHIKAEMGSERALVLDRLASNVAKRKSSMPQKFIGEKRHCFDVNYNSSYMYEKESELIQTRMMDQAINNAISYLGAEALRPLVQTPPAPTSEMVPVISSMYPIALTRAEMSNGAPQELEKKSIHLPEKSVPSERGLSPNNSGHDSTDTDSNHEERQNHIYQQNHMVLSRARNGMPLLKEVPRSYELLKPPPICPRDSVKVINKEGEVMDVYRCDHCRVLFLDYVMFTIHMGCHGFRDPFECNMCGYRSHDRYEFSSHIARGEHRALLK
# T4 sequence (Q96SW2 whole entry): as the sequence (Q96SW2 whole entry) above
# T4 sequence (Q16531 whole entry partner): as the sequence (Q16531 whole entry partner) above
# T6 sequence (P15170 whole entry): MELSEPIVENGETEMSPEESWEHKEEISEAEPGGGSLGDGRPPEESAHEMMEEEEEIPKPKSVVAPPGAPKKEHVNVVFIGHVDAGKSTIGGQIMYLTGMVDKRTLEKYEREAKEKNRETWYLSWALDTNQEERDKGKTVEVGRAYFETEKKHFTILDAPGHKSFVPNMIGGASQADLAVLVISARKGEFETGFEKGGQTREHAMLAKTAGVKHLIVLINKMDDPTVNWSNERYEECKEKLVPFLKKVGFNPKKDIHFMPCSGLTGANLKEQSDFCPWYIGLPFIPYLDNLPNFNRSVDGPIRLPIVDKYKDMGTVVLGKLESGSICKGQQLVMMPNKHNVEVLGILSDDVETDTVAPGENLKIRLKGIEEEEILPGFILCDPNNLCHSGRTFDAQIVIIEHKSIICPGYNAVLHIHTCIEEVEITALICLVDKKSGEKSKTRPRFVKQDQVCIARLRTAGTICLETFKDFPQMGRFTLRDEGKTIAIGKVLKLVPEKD
# T6 sequence (Q96SW2 whole entry): as the sequence (Q96SW2 whole entry) above
# T6 sequence (Q16531 whole entry partner): as the sequence (Q16531 whole entry partner) above
# T2 sequence (P30291 whole entry): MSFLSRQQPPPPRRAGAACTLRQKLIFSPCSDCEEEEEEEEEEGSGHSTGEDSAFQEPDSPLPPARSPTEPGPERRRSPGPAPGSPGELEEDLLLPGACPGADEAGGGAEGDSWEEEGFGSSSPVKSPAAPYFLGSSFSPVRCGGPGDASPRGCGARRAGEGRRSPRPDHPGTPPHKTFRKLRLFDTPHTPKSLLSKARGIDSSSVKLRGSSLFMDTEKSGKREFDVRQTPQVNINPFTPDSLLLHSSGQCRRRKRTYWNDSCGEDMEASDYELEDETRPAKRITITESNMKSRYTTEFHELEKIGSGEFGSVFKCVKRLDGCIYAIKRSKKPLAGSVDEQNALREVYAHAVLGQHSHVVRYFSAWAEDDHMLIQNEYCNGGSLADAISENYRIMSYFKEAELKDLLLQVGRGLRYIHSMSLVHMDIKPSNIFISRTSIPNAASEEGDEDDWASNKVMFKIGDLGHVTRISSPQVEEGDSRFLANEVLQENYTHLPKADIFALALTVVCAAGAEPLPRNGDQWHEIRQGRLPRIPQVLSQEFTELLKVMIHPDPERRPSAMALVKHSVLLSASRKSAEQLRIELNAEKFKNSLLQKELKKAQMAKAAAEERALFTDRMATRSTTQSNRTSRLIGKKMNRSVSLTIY
# T2 sequence (Q96SW2 whole entry): as the sequence (Q96SW2 whole entry) above
# T2 sequence (Q16531 whole entry partner): as the sequence (Q16531 whole entry partner) above
Compound,IC50 [1] [nM],IKZF1 substrate protein remaining % [2],WEE1 substrate protein remaining % [3],CK1α substrate protein remaining % [4],IKZF3 substrate protein remaining % [5],IKZF2 substrate protein remaining % [6],GSPT1 substrate protein remaining % [7],inhibition at 0.01 µM [1] [%],inhibition at 0.5 µM [1] [%],substrate protein remaining % IKZF1 [2],substrate protein remaining % WEE1 [3],substrate protein remaining % CK1α [4],substrate protein remaining % IKZF3 [5],substrate protein remaining % IKZF2 [6],inhibition at 0.01 µM [8] [%],inhibition at 0.5 µM [8] [%],substrate protein remaining % GSPT1 [7]
"O=C1CCN(N2Cc3cc(CN4CCN(c5ccccc5)CC4)ccc3C2=O)C(=O)N1 [GT-06696, 1-(1-oxo-5-((4-phenylpiperazin-1-yl)methyl)isoindolin-2-yl)dihydropyrimidine-2,4(1H,3H)-dione]",100 to 300,"B (""B"" is defined as 80%< substrate protein remaining %≤ 100%)","B (""B"" is defined as 80%< substrate protein remaining %≤ 100%)","B (""B"" is defined as 80%< substrate protein remaining %≤ 100%)","B (""B"" is defined as 80%< substrate protein remaining %≤ 100%)","B (""B"" is defined as 80%< substrate protein remaining %≤ 100%)","A (""A"" is defined as 0% ≤ substrate protein remaining % ≤ 80%)",–,–,–,–,–,–,–,–,–,–
"O=C1CCN(N2Cc3cc(CN4CCN(c5cccc(Br)c5)CC4)ccc3C2=O)C(=O)N1 [GT-06698, 1-(5-((4-(3-bromophenyl)piperazin-1-yl)methyl)-1-oxoisoindolin-2-yl)dihydropyrimidine-2,4(1H,3H)-dione]",100 to 300,"B (""B"" is defined as 80%< substrate protein remaining %≤ 100%)","B (""B"" is defined as 80%< substrate protein remaining %≤ 100%)","B (""B"" is defined as 80%< substrate protein remaining %≤ 100%)","B (""B"" is defined as 80%< substrate protein remaining %≤ 100%)","B (""B"" is defined as 80%< substrate protein remaining %≤ 100%)","A (""A"" is defined as 0% ≤ substrate protein remaining % ≤ 80%)",–,–,–,–,–,–,–,–,–,–
"O=C1CCN(N2Cc3cc(CN4CCN(c5ccc(C(F)(F)F)cc5)CC4)ccc3C2=O)C(=O)N1 [GT-06700, 1-(1-oxo-5-((4-(4-(trifluoromethyl)phenyl)piperazin-1-yl)methyl)isoindolin-2-yl)dihydropyrimidine-2,4(1H,3H)-dione]",50 to 100,–,–,–,–,–,–,–,–,–,–,–,–,–,–,–,–
"CC1(C)CCC(CN2C3CCC2CN(Cc2ccc4c(c2)C(=O)N(N2CCC(=O)NC2=O)C4=O)C3)=C(c2ccc(Cl)cc2)C1 [GT-07887, 5-((8-((4'-chloro-5,5-dimethyl-3,4,5,6-tetrahydro-[1,1'-biphenyl]-2-yl)methyl)-3,8-diazabicyclo[3.2.1]octan-3-yl)methyl)-2-(2,4-dioxotetrahydropyrimidin-1(2H)-yl)isoindoline-1,3-dione]",–,–,–,–,–,–,–,25 to 30,30 to 40,–,–,–,–,–,–,–,–
"Cc1nc(N2CCN(Cc3ccc4c(c3)C(=O)N(N3CCC(=O)NC3=O)C4=O)CC2)c2c3c(sc2n1)CCCC3 [GT-08101, 2-(2,4-dioxotetrahydropyrimidin-1(2H)-yl)-5-((4-(2-methyl-5,6,7,8-tetrahydrobenzo[4,5]thieno[2,3-d]pyrimidin-4-yl)piperazin-1-yl)methyl)isoindoline-1,3-dione]",–,–,–,–,–,–,–,18 to 25,25 to 30,–,–,–,–,–,–,–,–
"O=C1CCN(N2Cc3cc(CN4CCN(c5ncnc6ccsc56)CC4)ccc3C2=O)C(=O)N1 [GT-08443, 1-(1-oxo-5-((4-(thieno[3,2-d]pyrimidin-4-yl)piperazin-1-yl)methyl)isoindolin-2-yl)dihydropyrimidine-2,4(1H,3H)-dione]",–,–,–,–,–,–,–,–,–,B (80%< substrate protein remaining %≤ 100%),A (0% ≤ substrate protein remaining % ≤ 80%),B (80%< substrate protein remaining %≤ 100%),B (80%< substrate protein remaining %≤ 100%),B (80%< substrate protein remaining %≤ 100%),20 to 40,40 to 60,B (80%< substrate protein remaining %≤ 100%)
"O=C1CCN(N2C(=O)c3ccc(CN4CCN(c5nc(Cl)nc6c5SCC6)CC4)cc3C2=O)C(=O)N1 [GT-08448, 5-((4-(2-chloro-6,7-dihydrothieno[3,2-d]pyrimidin-4-yl)piperazin-1-yl)methyl)-2-(2,4-dioxotetrahydropyrimidin-1(2H)-yl)isoindoline-1,3-dione]",–,–,–,–,–,–,–,–,–,B (80%< substrate protein remaining %≤ 100%),B (80%< substrate protein remaining %≤ 100%),B (80%< substrate protein remaining %≤ 100%),B (80%< substrate protein remaining %≤ 100%),B (80%< substrate protein remaining %≤ 100%),20 to 40,20 to 40,A (0% ≤ substrate protein remaining % ≤ 80%)
"O=C1CCN(N2C(=O)c3ccc(CN4CCN(c5nc6c(c(N7CCOCC7)n5)SCC6)CC4)cc3C2=O)C(=O)N1 [GT-08451, 2-(2,4-dioxotetrahydropyrimidin-1(2H)-yl)-5-((4-(4-morpholino-6,7-dihydrothieno[3,2-d]pyrimidin-2-yl)piperazin-1-yl)methyl)isoindoline-1,3-dione]",–,–,–,–,–,–,–,–,–,B (80%< substrate protein remaining %≤ 100%),B (80%< substrate protein remaining %≤ 100%),A (0% ≤ substrate protein remaining % ≤ 80%),A (0% ≤ substrate protein remaining % ≤ 80%),B (80%< substrate protein remaining %≤ 100%),15 to 20,20 to 40,B (80%< substrate protein remaining %≤ 100%)
"O=C1CCN(N2C(=O)c3ccc(CN4CCN(c5ncnc6ccsc56)CC4)cc3C2=O)C(=O)N1 [GT-08452, 2-(2,4-dioxotetrahydropyrimidin-1(2H)-yl)-5-((4-(thieno[3,2-d]pyrimidin-4-yl)piperazin-1-yl)methyl)isoindoline-1,3-dione]",–,–,–,–,–,–,–,–,–,A (0% ≤ substrate protein remaining % ≤ 80%),A (0% ≤ substrate protein remaining % ≤ 80%),A (0% ≤ substrate protein remaining % ≤ 80%),A (0% ≤ substrate protein remaining % ≤ 80%),B (80%< substrate protein remaining %≤ 100%),20 to 40,5 to 10,B (80%< substrate protein remaining %≤ 100%)
"O=C1CCN(N2C(=O)c3ccc(CN4CCN(c5nc(Cl)nc6ccsc56)CC4)cc3C2=O)C(=O)N1 [GT-08453, 5-((4-(2-chlorothieno[3,2-d]pyrimidin-4-yl)piperazin-1-yl)methyl)-2-(2,4-dioxotetrahydropyrimidin-1(2H)-yl)isoindoline-1,3-dione]",–,–,–,–,–,–,–,–,–,A (0% ≤ substrate protein remaining % ≤ 80%),B (80%< substrate protein remaining %≤ 100%),A (0% ≤ substrate protein remaining % ≤ 80%),A (0% ≤ substrate protein remaining % ≤ 80%),B (80%< substrate protein remaining %≤ 100%),20 to 40,10 to 15,A (0% ≤ substrate protein remaining % ≤ 80%)
"O=C1CCN(N2C(=O)c3ccc(CN4CCN(c5nc(N6CCOCC6)nc6ccsc56)CC4)cc3C2=O)C(=O)N1 [GT-08455, 2-(2,4-dioxotetrahydropyrimidin-1(2H)-yl)-5-((4-(2-morpholinothieno[3,2-d]pyrimidin-4-yl)piperazin-1-yl)methyl)isoindoline-1,3-dione]",–,–,–,–,–,–,–,–,–,B (80%< substrate protein remaining %≤ 100%),B (80%< substrate protein remaining %≤ 100%),A (0% ≤ substrate protein remaining % ≤ 80%),A (0% ≤ substrate protein remaining % ≤ 80%),B (80%< substrate protein remaining %≤ 100%),5 to 10,15 to 20,A (0% ≤ substrate protein remaining % ≤ 80%)
